These results are taken from the SangsterLogP compilation.

The compound `CCCCCCCCN(C)N=Nc1ccc(C(=O)O)cc1` showed a logP of 2.96.

For the compound `CCCCCCCCCCCCN(C)N=Nc1ccc(C(N)=O)cc1`, the logP was determined as 6.58.

The compound `C#CCN(C)N=Nc1ccc(C(=O)O)cc1` yielded a logP of -0.13.

The compound `CN(CCO)/N=N/c1ccc(C(N)=O)cc1` gave a logP of 0.26.

As for `CCCCCCCCCCCCN(C)N=Nc1ccc(C(=O)O)cc1`, the logP came out at 4.77.

Compound `CCCCCCCN(C)/N=N/c1ccc(C(N)=O)cc1` gave a logP of 4.15.

`CCCCCCCCCCCCCCCCCCN(C)N=Nc1ccc(C(=O)O)cc1` showed a logP of 7.6.

Compound `CC(C)N(C)N=Nc1ccc(C(=O)O)cc1` had a logP of 0.42.

As to `CN(C)/N=N/c1ccc(C(N)=O)cc1`, the logP was 1.17.

Compound `CN(Cc1ccccc1)N=Nc1ccc(C(=O)O)cc1` came in with a logP of 0.94.

For `CCN(C)N=Nc1ccc(C(=O)O)cc1`, the logP came out at 0.03.

With `CN(O)N=Nc1ccc(C(N)=O)cc1`, the logP was -0.22.

With `CN(C)/N=N/c1ccc(C(=O)O)cc1`, the logP was -0.29.

Compound `CCCCCCCN(C)N=Nc1ccc(C(=O)O)cc1` displayed a logP of 2.37.

In turn, `CCCCCCN(C)N=Nc1ccc(C(N)=O)cc1` had a logP of 3.59.

For the compound `C=CCN(C)N=Nc1ccc(C(=O)O)cc1`, the logP was found to be 0.38.
